Patent US6906046B2 (Celltech R & D Inc., priority 2000, dated 2005)
Like-named read-outs stand apart in the source and are kept apart here.

Legend:
A549 cells = assay: Inhibition of TNF-α induced apoptosis in A549 cells (crystal violet); type: cell-based; conditions: Homo sapiens, percent inhibition at 20 μM or IC50 in μM
Description: The protocol used for determining inhibition of apoptosis in A549 cells was adopted from a system previously described (K. Last-Barney et al., J. of Immunology 141:527-530, 1988). Briefly, 10^5 cells in 200 μL 10% FBS/RPMI antibiotic containing culture medium were plated into 96 well round bottom culture plates and allowed to adhere for 6 hours at 37° C. in a 5% CO2 atmosphere. The media was removed and 100 μL of RPMI+1 μg/mL actinomycin-D was added to each well, followed by 90 μL of test compound solution in 1% DMSO. This was incubated for 1 hour 10 AL TNF-α was added at its EC50 (normally 1 ng/mL FAC) and the plates incubated for 18 hours. The media was aspirated from the plates and 100 μL of 0.5% crystal violet in 20% methanol was added. After 10 minutes the plates were rinsed with water to remove excess stain, air dried, and read on a Spectramax at a wavelength of 590 nm. The data obtained from the Spectramax was converted into percent inhibition data at a concentration of 20 μM or IC50 measured in μM.

NFκB = NFκB luciferase reporter assay in TNF-α stimulated A549 cells (E-selectin promoter); type: cell-based; conditions: % inhibition or IC50 in μM; for IC50: Homo sapiens
Description: A549 cells were stably transfected with an E-selectin promoter containing three NFκB binding sites driving luciferase expression. For the assay, 5×10^4 cells were incubated in 96 well round bottom plates overnight in 100 μL of 10% FBS/RPMI medium at 37° C. in a 5% CO2 atmosphere. The following morning the medium was removed and 90 μL of a 1% DMSO solution of test compound solution was added and the plates incubated for 1 hour. 10 μL of TNF-α was added at its EC50 (normally 6 ng/mL FAC) to each well and the plate incubated for 5 hours. 100 μL of luciferase buffer was added, and after 10 minutes luminescence was read on a Wallac Victor 1420 Multilabel Counter. The data obtained from the Wallac Victor was converted into % inhibition data or IC50 measured in μM.

CXCR1 = target: T1, CXCR1 (Homo sapiens, UniProt P25024); assay: CXCR1 radioligand binding assay with 125I labeled IL-8; conditions: human recombinant CHO cells; for IC50: percent inhibition or IC50, read-out: CXCR1 inh.
T1 construct: host or cells: CHO cells
T1 sequence (P25024 1-350): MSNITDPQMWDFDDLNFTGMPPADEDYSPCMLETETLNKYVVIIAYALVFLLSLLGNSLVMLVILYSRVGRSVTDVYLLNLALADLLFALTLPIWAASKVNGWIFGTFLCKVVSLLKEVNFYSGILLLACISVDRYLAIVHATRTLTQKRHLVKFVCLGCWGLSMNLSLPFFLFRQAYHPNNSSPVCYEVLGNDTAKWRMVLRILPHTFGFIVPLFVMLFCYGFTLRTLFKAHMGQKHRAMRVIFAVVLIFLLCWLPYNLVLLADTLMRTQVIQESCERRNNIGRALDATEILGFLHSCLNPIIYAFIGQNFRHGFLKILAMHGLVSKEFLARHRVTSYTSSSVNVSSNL
Description: (§1) This assay is a radioligand binding assay in human recombinant CHO cells with ^125I labeled IL-8 as the ligand. The assay procedure is described in Ahuja, S. K.; Murphy, P. M;.

CXCR2 = target: T2, CXCR2 (Homo sapiens, UniProt P25025); assay: CXCR2 radioligand binding assay with 125I labeled IL-8; conditions: human recombinant CHO cells; for IC50: percent inhibition or IC50, read-out: CXCR2 2 inh.; for CXCR2 2 inh.: percent inhibition or IC50
T2 construct: host or cells: CHO cells
T2 sequence (P25025 1-360): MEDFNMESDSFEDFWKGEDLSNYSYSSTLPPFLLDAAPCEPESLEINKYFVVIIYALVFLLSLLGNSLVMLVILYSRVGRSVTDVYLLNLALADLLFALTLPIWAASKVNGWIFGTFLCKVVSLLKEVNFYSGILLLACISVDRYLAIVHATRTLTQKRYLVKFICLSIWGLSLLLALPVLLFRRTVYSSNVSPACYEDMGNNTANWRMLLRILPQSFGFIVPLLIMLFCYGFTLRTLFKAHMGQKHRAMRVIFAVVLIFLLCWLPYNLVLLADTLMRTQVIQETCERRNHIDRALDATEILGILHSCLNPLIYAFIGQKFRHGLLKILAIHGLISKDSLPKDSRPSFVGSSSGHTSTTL
Description: as §1

[1] = inhibition of TNF-α induced apoptosis in A549 cells, given as class symbols, read-out: Apopt inh
[2] = TNF-α stimulated A549 cells, E-selectin promoter luciferase, given as class symbols, read-out: NFκB inh
[3] = A549 cells with NFκB luciferase reporter, TNF-α at its EC50, 5 hours

Row | Structure (SMILES) | IC50 (A549 cells; [1]) [µM] | IC50 (NFκB; [2]) [µM] | further results
1 | CCCOC(=O)[C@H]1[C@H](C(=O)OCC[Si](C)(C)C)C2C/C(=N\OCc3cccc(F)c3)[C@H]1c1cc(O)ccc12 (racemic) [Example 72, 11-(3-Fluoro-benzyloxyimino)-4-hydroxy-tricyclo[6.2.2.0^2,7]dodeca-2(7),3,5-triene-9,10-dicarboxylic acid 10-propyl ester 9-(2-trimethylsilanyl-ethyl) ester] | < 10 | – | –
2 | CCCOC(=O)[C@H]1[C@H](C(=O)OCC[Si](C)(C)C)C2CC(=CC(=O)OCC)[C@H]1c1cc(O)ccc12 [Example 98] | – | – | inhibition at 20 µM (A549 cells; [1]): 6 to 64%
3 | CCCOC(=O)[C@H]1[C@H](C(=O)OCC[Si](C)(C)C)C2CC(=O)[C@H]1c1ccccc12 [Example 52] | – | 10 to 50 | inhibition at 20 µM (A549 cells; [1]): 6 to 64%
4 | CCCOC(=O)C1C(C(=O)OCC[Si](C)(C)C)C2C/C(=N\Nc3ccccc3)[C@H]1c1cc(O)ccc12 (stereo partly drawn) [Example 111] | – | – | IC50 (CXCR1): < 10 µM; IC50 (A549 cells; A549 cells, actinomycin-D + TNF-α at its EC50, 18 hours, read-out: Apopt. Inh.): < 10 µM; IC50 (CXCR2): < 10 µM; IC50 (NFκB; A549 cells with NFκB luciferase reporter, TNF-α at its EC50, 5 hours, read-out: NFkB inh.): 10 to 50 µM
5 | CCCOC(=O)[C@H]1[C@H](C(=O)OCC[Si](C)(C)C)C2C/C(=N\NS(=O)(=O)c3ccccc3)[C@H]1c1cc(O)ccc12 [Example 58] | 10 to 50 | – | –
6 | C=CCOC(=O)c1ccc(COc2ccc3c(c2)[C@@H]2C(=O)CC3[C@@H](C(=O)N(C)CC(=O)NCc3c(OC)cc(OC)cc3OC)[C@H]2C(=O)OCC[Si](C)(C)C)cc1 [Example 110] | – | – | inhibition at 20 µM (A549 cells; [1]): 6 to 64%
7 | CCCNC1CC2c3ccc(O)cc3[C@H]1[C@@H](C(=O)OCCC)[C@@H]2C(=O)OCC[Si](C)(C)C (stereo partly drawn) [Example 85] | – | 10 to 50 | –
8 | CCCOC(=O)[C@H]1[C@H](C(=O)OCC[Si](C)(C)C)C2CC(NCc3ccc(C)cc3)[C@H]1c1cc(O)ccc12 (stereo partly drawn) [Example 84] | < 10 | 10 to 50 | –
9 | C[Si](C)(C)CCOC(=O)C1C2CC(=O)[C@@H](c3cc(O)ccc32)C1C(=O)OCC[Si](C)(C)C (stereo partly drawn) [Example 113] | – | – | IC50 (CXCR1): 10 to 50 µM; IC50 (CXCR2): 10 to 50 µM; NFkB inh. (NFκB; [3]): * (refers to percent inhibition from 6% to 64%)
10 | CCCOC(=O)[C@@H]1C2C(=O)CC(c3ccc(O)cc32)[C@H]1C(=O)OCCC12CC3CC(CC(C3)C1)C2 (stereo partly drawn) [Example 108] | – | 10 to 50 | –
11 | CCCOC(=O)[C@H]1[C@H](C(=O)OCC[Si](C)(C)C)C2CC3(OCCO3)[C@H]1c1cc(O)ccc12 [Example 97] | – | 10 to 50 | inhibition at 20 µM (A549 cells; [1]): 6 to 64%
12 | CCCOC(=O)[C@H]1[C@H](C(=O)OCC[Si](C)(C)C)C2CC(C)(O)[C@H]1c1cc(O)ccc12 (stereo partly drawn) [Example 99] | – | 10 to 50 | –
13 | CCCOC(=O)[C@H]1[C@H](C(=O)OCC[Si](C)(C)C)C2CC(NC)[C@H]1c1cc(O)ccc12 (stereo partly drawn) [Example 86] | – | 10 to 50 | –
14 | CCCOC(=O)[C@H]1[C@H](C(=O)OCC[Si](C)(C)C)C2CC(N(C)C(C)=O)[C@H]1c1cc(O)ccc12 (stereo partly drawn) [Example 94] | – | 10 to 50 | –
15 | CCCOC(=O)[C@H]1[C@H](C(=O)OCC[Si](C)(C)C)C2CC(N(C)C(C)=O)[C@H]1c1cc(OC(C)=O)ccc12 (stereo partly drawn) [Example 92] | – | 10 to 50 | –
16 | COc1ccc(COC(=O)[C@H]2[C@H](C(=O)OCC[Si](C)(C)C)C3CC(O)[C@H]2c2cc(O)ccc23)c(OC)c1 (stereo partly drawn) [Example 95] | – | – | inhibition at 20 µM (A549 cells; [1]): 6 to 64%
17 | CCCOC(=O)C1C(C(=O)OCC[Si](C)(C)C)C2C/C(=N\Nc3ccccc3Br)[C@H]1c1cc(O)ccc12 (stereo partly drawn) [Example 112] | – | – | IC50 (CXCR1): 10 to 50 µM; IC50 (CXCR2): < 10 µM; NFkB inh. (NFκB; [3]): * (refers to percent inhibition from 6% to 64%)

Row | Structure (SMILES) | IC50 (A549 cells; [1]) [µM] | IC50 (NFκB; [2]) [µM] | further results
18 | C=C1CC2c3ccc(O)cc3[C@H]1[C@@H](C(=O)OCCC)[C@@H]2C(=O)OCC[Si](C)(C)C [Example 101] | < 10 | – | –
19 | CCCOC(=O)[C@H]1[C@H](C(=O)OCC[Si](C)(C)C)C2C/C(=N\OCc3nnsc3Cl)[C@H]1c1cc(O)ccc12 (racemic) [Example 71, 11-(5-Chloro-[1,2,3]thiadiazol-4-ylmethoxyimino)-4-hydroxy-tricyclo[6.2.2.0^2,7]dodeca-2(7),3,5-triene-9,10-dicarboxylic acid 10-propyl ester 9-(2-trimethylsilanyl-ethyl) ester] | < 10 | 10 to 50 | –
20 | CCCOC(=O)[C@H]1[C@H](C(=O)OCC[Si](C)(C)C)C2C/C(=N\OCC(=O)N3CCN(c4ccccc4)CC3)[C@H]1c1cc(O)ccc12 (stereo in doubt) [Example 73] | – | 10 to 50 | –
21 | CCCOC(=O)[C@H]1[C@H](C(=O)OCC[Si](C)(C)C)C2CC(O)[C@H]1c1cc(O)ccc12 (stereo partly drawn) [Example 82] | < 10 | 10 to 50 | –
22 | CCCOC(=O)[C@H]1[C@H](C(=O)OCC[Si](C)(C)C)C2CC(N(Cc3ccc(C)cc3)C(C)=O)[C@H]1c1cc(O)ccc12 (stereo partly drawn) [Example 91] | – | 10 to 50 | –
23 | CCCOC(=O)[C@H]1[C@H](C(=O)OCC[Si](C)(C)C)C2C/C(=N\NCCO)[C@H]1c1cc(O)ccc12 [Example 56] | < 10 | – | –
24 | CCCOC(=O)[C@H]1[C@H](C(=O)OCC[Si](C)(C)C)C2C/C(=N/OCC(=O)N3CCN(c4ccccc4)CC3)[C@H]1c1cc(O)ccc12 [Example 74] | – | 10 to 50 | –
25 | CCCOC(=O)[C@H]1[C@H](C(=O)OCCS(=O)(=O)c2ccc(C)cc2)C2CC(=O)[C@H]1c1cc(O)ccc12 [Example 106] | – | 10 to 50 | –
26 | CCCOC(=O)[C@H]1[C@H](C(=O)OCC[Si](C)(C)C)C2C/C(=N\NC(=S)NC)[C@H]1c1cc(O)ccc12 [Example 81] | < 10 | – | –
27 | CCCOC(=O)[C@H]1[C@H](C(=O)OCC[Si](C)(C)C)C2CC(O)(CO)[C@H]1c1cc(O)ccc12 (stereo partly drawn) [Example 102] | – | – | inhibition at 20 µM (A549 cells; [1]): 6 to 64%
28 | CCCOC(=O)C1C(C(=O)OCC[Si](C)(C)C)C2C[C@@H](Nc3ccccc3)[C@H]1c1cc(O)ccc12 (stereo partly drawn) [Example 115] | – | – | CXCR1 inh. (CXCR1; percent inhibition or IC50): * (refers to percent inhibition from 10-36%); CXCR2 2 inh. (CXCR2): * (refers to percent inhibition from 10-36%); NFkB inh. (NFκB; [3]): * (refers to percent inhibition from 6% to 64%)
29 | CCCOC(=O)C1C(C(=O)OCC[Si](C)(C)C)C2C[C@H](Nc3ccccc3)[C@H]1c1cc(O)ccc12 (stereo partly drawn) [Example 114] | – | – | CXCR2 2 inh. (CXCR2): * (refers to percent inhibition from 10-36%); NFkB inh. (NFκB; [3]): * (refers to percent inhibition from 6% to 64%)
30 | COc1ccc(COC(=O)[C@H]2[C@H](C(=O)OCC[Si](C)(C)C)C3CC(O)[C@H]2c2cc(O)ccc23)c(OC)c1 (stereo partly drawn) [Example 96] | < 10 | – | –
31 | CCCCCN(CCCCC)C(=O)[C@@H]1[C@H](C(=O)N(C)CC(=O)NCc2c(OC)cc(OC)cc2OC)C2CC(=O)[C@H]1c1cc(OCc3ccc(C(=O)N4CCC[C@H]4C(=O)N(C)C)cc3)ccc12 [Example 5] | 10 to 50 | – | –
32 | CCCOC(=O)[C@H]1[C@H](C(=O)OCCC(C)(C)C)C2CC(=O)[C@H]1c1cc(O)ccc12 [Example 107] | – | 10 to 50 | –
33 | CCCOC(=O)[C@@H]1C2C(=O)CC(c3ccc(O)cc32)[C@H]1C(=O)OCCC[Si](C)(C)C (stereo partly drawn) [Example 109] | – | 10 to 50 | –
